Assay results taken from patent US11912650B2, “Bakuchiol derivatives, pharmaceutically acceptable salts thereof, and preparation method and use of the same” (priority 2020, dated 2024).
In brackets after ≈: the same amount, converted by molar mass. Read-outs that look alike come from different tables or passages of the source. Where a SMILES comes first, the peptide text is derived from it. The star is where a group is joined. X1 = C=C[C@](C)(/C=C/c1ccc(OCC(=O)*)cc1)CCC=C(C)C

Experiments:
Gram-positive bacteria = test: Antibacterial activity against Gram-positive bacteria (MIC summary); assay type: cell-based; details: 24 h, read-out: minimum inhibitory concentration (MIC) against Gram-positive bacteria
Experimental: (§1) Antibacterial activity assay. The antibacterial activities of all the compounds were determined according to a broth dilution method specified in Clinical and Laboratory Standards Institute (CLSI) guidelines. Bacterial cells were inoculated on a Mueller-Hinton agar (MHA) plate for overnight culture, and the concentration of the bacterial cells was adjusted to about 1×10^6 colony-forming units (CFU)/mL with phosphate buffered saline (PBS). First, a 1000 μg/mL stock solution (a final concentration of dimethyl sulfoxide (DMSO) was ≤2%) was prepared by dissolving a sample in DMSO/H2O. Then, the stock solution was diluted with Mueller-Hinton Broth (MHB) to an initial concentration of 100 μg/mL, and the sample solution (100 μL) was subjected to two-fold gradient dilution with MHB in a 96-well plate, to obtain 100 μg/mL to 0.78 μg/mL serial dilutions. Then, a bacterial suspension (100 μL) was added to each well of the 96-well plate and mixed with the test sample solution (100 μL). Among them, test systems for compounds 38, 44-45, 58-61 and 63-64 contained 0.05% of Tween 80. Finally, the 96-well plate was incubated at 37° C. for 24 hours. Absorbances at 600 nm at 0 and 24 h were measured. An minimum inhibitory concentration (MIC) value was defined as the lowest concentration where no visible bacterial growth occurred. All experiments were carried out in at least two duplicates, and biological repeatability could be achieved.

Gram-negative bacteria = test: Antibacterial activity against Gram-negative bacteria (MIC summary); assay type: cell-based; details: 24 h; summary of tables 1 and 2
Experimental: as §1

MRSA N315 = test: Antibacterial activity assay (broth dilution MIC); assay type: cell-based, methicillin-resistant Staphylococcus aureus; details: Staphylococcus aureus, 37° C., 24 h, compounds 38, 44-45, 58-61, 63-64 with 0.05% Tween 80
Experimental: as §1

MRSA NCTC10442 = test: Antibacterial activity assay (broth dilution MIC); assay type: cell-based, methicillin-resistant Staphylococcus aureus; details: Staphylococcus aureus, 37° C., 24 h, compounds 38, 44-45, 58-61, 63-64 with 0.05% Tween 80
Experimental: as §1

S. aureus ATCC29213 [1] = test: Antibacterial activity assay (broth dilution MIC); assay type: cell-based; details: Staphylococcus aureus, 37° C., 24 h, compounds 38, 44-45, 58-61, 63-64 with 0.05% Tween 80
Experimental: as §1

E. coli ATCC25922 = test: Antibacterial activity assay (broth dilution MIC); assay type: cell-based; details: Escherichia coli, 37° C., 24 h, compounds 38, 44-45, 58-61, 63-64 with 0.05% Tween 80
Experimental: as §1

rabbit red blood cells = test: Hemolytic activity assay; assay type: cell-based
Experimental: Hemolytic activity assay. Rabbit red blood cells were centrifuged at 2500 rpm for 3 minutes and then washed twice with PBS. Subsequently, a 8% (v/v) cell suspension was prepared by resuspending the rabbit red blood cells with PBS. A sample was first dissolved in DMSO or PBS (a final concentration of DMSO was ≤0.5%), and then diluted with PBS to prepare two-fold gradient dilutions (400 μg/mL to 3.125 μg/mL). The rabbit red blood cell suspension ([…]) was mixed with the two-fold gradient dilutions ([…]) of the sample. Then, the mixture was added to a sterile 96-well plate, incubated at 37° C. for 1 hour, and then centrifuged at 2500 rpm for 5 minutes. Among them, test systems for compounds 38, 44-45, 58-61 and 63-64 contained 0.05% of Tween 80. The supernatant (100 μL) was transferred to a new 96-well plate. Absorbance at 576 nm was measured using a Biotek multifunctional microplate reader. The positive control group was treated with a 2% Triton X-100 solution, and the negative control group was treated with PBS or 0.5% DMSO. The hemolytic activity was calculated by the following equation: % hemolytic activity=[(Abssample−Absnegative control)/(Abspositive control−Absnegative control)]×100. All experiments were carried out in at least two duplicates, and biological repeatability could be achieved.

S. aureus ATCC29213 [2] = test: Evaluation of development tendency of drug resistance; assay type: cell-based; details: S. aureus ATCC29213, passage at 0.5×MIC
Experimental: Evaluation of development tendency of drug resistance. Initial MIC values of compound 60, norfloxacin and gatifloxacin against S. aureus ATCC29213 were obtained by the above MIC determination method. Bacterial cells in a 96-well plate with a concentration of 0.5×MIC were taken out to prepare a bacterial suspension (about 1×10^6 CFU/mL) for the next MIC value determination. After incubating the sample at 37° C. for 24 hours, the change in the MIC value of each compound was measured. This experiment was carried out consecutively for 15 days.

[3] = system: mouse fibroblasts NCTC clone 929; test: Toxicity to mammalian cells (CCK-8); assay type: cell-based; details: mouse, 24 h, 100 μg/mL
Experimental: Assay of toxicity to mammalian cells. The cytotoxicities of a compound to be tested to mouse fibroblasts NCTC clone 929, mouse corneal cells CM120 and human hepatocellular carcinoma cells Hep-G2 were evaluated by a CCK-8 method. Cells were inoculated to a 96-well plate according to the cell amount described in a CCK-8 kit (Beyotime, PRC) specification, and cultured at 37° C. with 5% CO2 for 24 h. Then, a specific concentration of the sample to be tested was added to each well. Inoculation was further performed at 37° C. in an incubator for 24 h. Finally, a CCK-8 solution having a final concentration of 10% was added to each well. Incubation was further performed in the incubator for 1.0 h before absorbance at 450 nm (OD450) of the solution was measured by a microplate reader. According to formula (2), the cytotoxicity of the sample to be tested could be obtained:
[formula] • Asample: absorbance of a well with cells, a CCK8 solution and a sample solution to be tested; • Ablank: absorbance of a well with a culture medium and a CCK8 solution but without cells; and • Ano sample: absorbance of a well with cells and a CCK8 solution but without a sample solution to be tested.

S. aureus ATCC29213 [4] = test: Mouse model of bacterial keratitis (cornea infection); assay type: in vivo; details: topical four times a day for three days; 0.5% compound 60, 5% vancomycin; P<0.01
Experimental: Evaluation of in vivo efficacy. The experiment for evaluating in vivo antibacterial efficacy of animals had been approved by the Laboratory Animal Center of South China Agricultural University and was carried out according to the policy of the Ministry of Health of the People's Republic of China. Female C57BL6 mice (6-8 weeks, with an average weight of 20 g) were used as a bacterial keratitis model. In order to establish an immunosuppressive mouse model, cyclophosphamide (100 mg/kg) was injected intraperitoneally to mice three times 5 days before infection. Bacterial cells (S. aureus ATCC 29213) inoculated onto a Mueller Hinton agar (MHA) plate were suspended with PBS, and the concentration of the bacterial cells was adjusted to about 5×10^7 CFU/mL for corneal infection in mice. First, the mice were anesthetized. Then, the cornea of the left eye of the mouse was scratched with a sterile needle, and 15 μL of bacterial suspension was dropped on the injured cornea. One day after infection, the mice were randomized into three groups (5 mice per group). Three compounds (0.5% 60, 5% glucose solution and 5% vancomycin) were applied topically four times a day for consecutive three days, respectively. […] Viable bacteria were counted by an MHA plate counting method. the P value was calculated using SPSS 22.0 software and P≤0.05 was considered as being statistically significant.

Structure (SMILES)	MIC (Gram-positive bacteria; summary of tables 1 and 2) [µg/mL]	MIC (Gram-negative bacteria) [µg/mL]	MIC (MRSA N315) [µg/mL]	MIC (MRSA NCTC10442) [µg/mL]	MIC (S. aureus ATCC29213 [1]) [µg/mL]	MIC (E. coli ATCC25922) [µg/mL]	HC50 (concentration necessary to lyse 50% rabbit red blood cells) (rabbit red blood cells; rabbit red blood cells, 37° C., 1 hour) [µg/mL]	MIC (Gram-positive bacteria) [µg/mL]	HC50 (concentration necessary to lyse 50% rabbit red blood cells) (rabbit red blood cells; rabbit, 1 h)	change in MIC value after 15 days of continuous passage (S. aureus ATCC29213 [2])	cell survival rate, mouse fibroblasts NCTC clone 929 [3]	reduction of the number of bacteria in the infected mouse cornea (S. aureus ATCC29213 [4]) [log]
C=C[C@@](C)(/C=C/c1ccc(OCCCCN(C)CCCNC)cc1)CCC=C(C)C [Compound 24]	0.39 to 3.12 (≈ 0.945 to 7.57 µM)	1.56 to 3.12 (≈ 3.78 to 7.57 µM)	0.78 (≈ 1.89 µM)	1.56 (≈ 3.78 µM)	1.56 (≈ 3.78 µM)	1.56 (≈ 3.78 µM)	–	–	–	–	–	–
C=C[C@@](C)(/C=C/c1ccc(OCCCCN(C)CCCN(C)C)cc1)CCC=C(C)C [Compound 26]	0.39 to 3.12 (≈ 0.914 to 7.32 µM)	1.56 to 3.12 (≈ 3.66 to 7.32 µM)	1.56 (≈ 3.66 µM)	3.12 (≈ 7.32 µM)	1.56 (≈ 3.66 µM)	3.12 (≈ 7.32 µM)	–	–	–	–	–	–
C=C[C@@](C)(/C=C/c1ccc(OCCCCN(C)CCCN(C)CCCNC)cc1)CCC=C(C)C [Compound 27]	0.39 to 3.12 (≈ 0.806 to 6.46 µM)	1.56 to 3.12 (≈ 3.22 to 6.46 µM)	0.78 (≈ 1.61 µM)	1.56 (≈ 3.22 µM)	1.56 (≈ 3.22 µM)	1.56 (≈ 3.22 µM)	–	–	–	–	–	–
C=C[C@@](C)(/C=C/c1ccc(OCCCCN(CCCN(C)C)CCCN(C)C)cc1)CCC=C(C)C [Compound 28]	0.39 to 3.12 (≈ 0.783 to 6.28 µM)	1.56 to 3.12 (≈ 3.13 to 6.28 µM)	1.56 (≈ 3.13 µM)	1.56 (≈ 3.13 µM)	1.56 (≈ 3.13 µM)	3.12 (≈ 6.28 µM)	112.9 ± 5.0	–	–	–	–	–
C=C[C@](C)(/C=C/c1ccc(OCCCCNCCN(CCN)CCN)cc1)CCC=C(C)C [Compound 29]	0.39 to 3.12 (≈ 0.854 to 6.84 µM)	1.56 to 3.12 (≈ 3.42 to 6.84 µM)	0.78 (≈ 1.71 µM)	0.78 (≈ 1.71 µM)	0.78 (≈ 1.71 µM)	3.12 (≈ 6.84 µM)	–	–	–	–	–	–
C=C[C@@](C)(/C=C/c1ccc(OCCCCN2CCCNCCNCCCNCC2)cc1)CCC=C(C)C [Compound 30]	0.39 to 3.12 (≈ 0.763 to 6.12 µM)	1.56 to 3.12 (≈ 3.05 to 6.12 µM)	0.78 (≈ 1.53 µM)	0.78 (≈ 1.53 µM)	0.78 (≈ 1.53 µM)	3.12 (≈ 6.12 µM)	–	–	–	–	–	–
C=C[C@](C)(/C=C/c1ccc(OCC(=O)N[C@@H](CCCNC(=N)N)C(=O)N[C@@H](CCCNC(=N)N)C(=O)OC)cc1)CCC=C(C)C [Compound 44]	–	1.56 to 3.12 (≈ 2.43 to 4.88 µM)	0.78 (≈ 1.22 µM)	1.56 (≈ 2.43 µM)	0.78 (≈ 1.22 µM)	3.12 (≈ 4.88 µM)	–	0.39 to 3.12 (≈ 0.609 to 4.88 µM)	–	–	–	–
C=C[C@](C)(/C=C/c1ccc(OCC(=O)N[C@@H](CCCNC(=N)N)C(=O)N[C@@H](CCCNC(=N)N)C(=O)N2CCN(c3ccc(N4C[C@H](CNC(C)=O)OC4=O)cc3F)CC2)cc1)CCC=C(C)C [Compound 59]	0.39 to 3.12 (≈ 0.413 to 3.31 µM)	1.56 to 3.12 (≈ 1.65 to 3.31 µM)	0.78 (≈ 0.825 µM)	0.78 (≈ 0.825 µM)	0.78 (≈ 0.825 µM)	1.56 (≈ 1.65 µM)	–	–	–	–	–	–
C=C[C@](C)(/C=C/c1ccc(OCC(=O)N[C@@H](CCCNC(=N)N)C(=O)N[C@@H](CCCNC(=N)N)C(=O)N[C@@H](CCCNC(=N)N)C(=O)N[C@@H](CCCNC(=N)N)C(=O)OC)cc1)CCC=C(C)C [Compound 60] (X1-RRRR-OMe)	0.39 to 3.12 (≈ 0.409 to 3.28 µM)	–	0.39 (≈ 0.409 µM)	0.78 (≈ 0.818 µM)	0.39 (≈ 0.409 µM)	12.5 (≈ 13.1 µM)	–	–	more than 400 μg/mL	does not change significantly	93.7±0.700	4.48
C=C[C@](C)(/C=C/c1ccc(OCC(=O)N[C@@H](CCCNC(=N)N)C(=O)N[C@@H](CCCNC(=N)N)C(=O)N[C@@H](CCCNC(=N)N)C(=O)N[C@@H](CCCNC(=N)N)C(N)=O)cc1)CCC=C(C)C [Compound 61] (X1-RRRR-NH2)	0.39 to 3.12 (≈ 0.416 to 3.33 µM)	–	0.39 (≈ 0.416 µM)	0.78 (≈ 0.831 µM)	0.78 (≈ 0.831 µM)	25 (≈ 26.6 µM)	–	–	more than 400 μg/mL	–	–	–
C=C[C@](C)(/C=C/c1ccc(OCC(=O)N[C@@H](CCCNC(=N)N)C(=O)N[C@@H](CCCNC(=N)N)C(=O)N[C@@H](CCCNC(=N)N)C(=O)N2CCN(c3ccc(N4C[C@H](CNC(C)=O)OC4=O)cc3F)CC2)cc1)CCC=C(C)C [Compound 63]	0.39 to 3.12 (≈ 0.354 to 2.84 µM)	1.56 to 3.12 (≈ 1.42 to 2.84 µM)	0.78 (≈ 0.708 µM)	0.78 (≈ 0.708 µM)	0.78 (≈ 0.708 µM)	3.12 (≈ 2.84 µM)	–	–	–	–	–	–
C=C[C@](C)(/C=C/c1ccc(OCC(=O)N[C@@H](CCCNC(=N)N)C(=O)N[C@@H](CCCNC(=N)N)C(=O)N[C@@H](CCCNC(=N)N)C(=O)N[C@@H](CCCNC(=N)N)C(=O)N[C@@H](CCCNC(=N)N)C(=O)N[C@@H](CCCNC(=N)N)C(=O)OC)cc1)CCC=C(C)C [Compound 64]	0.39 to 3.12 (≈ 0.308 to 2.47 µM)	–	1.56 (≈ 1.23 µM)	1.56 (≈ 1.23 µM)	1.56 (≈ 1.23 µM)	25 (≈ 19.8 µM)	–	–	more than 400 μg/mL	–	–	–
CCn1cc(C(=O)O)c(=O)c2cc(F)c(N3CCNCC3)cc21 [norfloxacin, reference compound]	–	–	–	–	–	–	–	–	–	16 fold	–	–
